We go through two compounds from patent US20240426807A1, “SCREENING SYSTEM” (Givaudan SA, priority 2021, published 2024).

Assay [1] concerns the target T1, pool of cells with OR5A1, OR5A2, OR5AN1, OR6Y1, OR10G4, OR10G7 or OR10G9 (Homo sapiens, UniProt Q8NGN6).
T1 construct: expressed in transfected cells; host or cells: HEK293T stably expressing RTP1S and RTP2; 7 separate transfections pooled
T1 sequence (Q8NGN6 1-311): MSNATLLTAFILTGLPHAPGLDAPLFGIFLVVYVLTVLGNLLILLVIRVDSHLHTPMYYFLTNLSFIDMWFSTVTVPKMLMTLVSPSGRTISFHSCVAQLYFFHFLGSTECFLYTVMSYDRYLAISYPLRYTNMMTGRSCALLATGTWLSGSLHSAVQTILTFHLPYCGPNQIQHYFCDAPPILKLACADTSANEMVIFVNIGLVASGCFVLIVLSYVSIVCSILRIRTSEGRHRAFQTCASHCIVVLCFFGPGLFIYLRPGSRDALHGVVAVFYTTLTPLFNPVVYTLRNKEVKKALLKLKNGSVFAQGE
As to the kind of experiment: Selection of cognate-receptor cells from a pool of OR-expressing cells with the target ligand and puromycin. In kind it is cell-based. Conditions: 1 μM eugenol, puromycin 1 μg/ml, pool of 7 OR transfections. As for the experimental part:
(§1) For many ligands the cognate OR receptors are not known (“orphan receptors”), or it is unknown among a pool of receptors, which one has the best affinity for a ligand of interest, e.g. a perfumery note of particular interest. Thus, the ligand-induced selection pressure can be used to enrich a specific OR-expressing cell from a pool of OR-expressing cells in the presence of a ligand of interest. HEK293T cells stably expressing RTP1S and RTP2 were seeded into 7 wells of 6-well plates at 330,000 cells/well.
(§2) The next day, the cells of each well were transfected with 2 μg of a PvuI-linearized pGL4.29-CRE-Puro-Hygro-OR construct harboring one of the receptors OR5A1 (NCBI Genbank Gene ID: 219982), OR5A2 (NCBI Genbank Gene ID: 219981), OR5AN1 NCBI Genbank Gene ID: 390195, SEQ ID NO: 70), OR6Y1 (NCBI Genbank Gene ID: 391112), OR10G4 (NCBI Genbank Gene ID: 390264, SEQ ID NO: 72), OR10G7 (NCBI Genbank Gene ID: 390265, SEQ ID NO: 71), or OR10G9 (NCBI Genbank Gene ID: 219870). 24 h after transfection, the cells of all 7 transfections were harvested and pooled. 350 cells of this pool of cells with different OR genes inserted were then seeded into each well of seven 96-well plates.
(§3) 3 days later, cells were stimulated with ligands for either OR5AN1 (10 μM musk ketone), OR10G7 (1 μM eugenol), or OR10G4 (100 μM vanitrope). One plate was treated with DMSO only. 6h after the addition of the OR ligands, puromycin was added to each plate at a final concentration of 1 μg/ml. On every day during the following week, the medium on all plates was replaced with fresh medium containing the corresponding ligand and puromycin. The plates were then searched for wells containing only a single colony of puromycin-resistant cells. The cells of those colonies were transferred to larger plates and grown until they had multiplied to about 8 Mio cells. The genomic DNA of 2 Mio cells of each clone were isolated using the Puregene kit according to the manufacturer's protocol. […]

For assay [2], the target named is T2, pool of cells with OR5A1, OR5A2, OR5AN1, OR6Y1, OR10G4, OR10G7 or OR10G9 (Homo sapiens, UniProt Q8NGI8).
T2 construct: expressed in transfected cells; host or cells: HEK293T stably expressing RTP1S and RTP2; 7 separate transfections pooled
T2 sequence (Q8NGI8 1-311): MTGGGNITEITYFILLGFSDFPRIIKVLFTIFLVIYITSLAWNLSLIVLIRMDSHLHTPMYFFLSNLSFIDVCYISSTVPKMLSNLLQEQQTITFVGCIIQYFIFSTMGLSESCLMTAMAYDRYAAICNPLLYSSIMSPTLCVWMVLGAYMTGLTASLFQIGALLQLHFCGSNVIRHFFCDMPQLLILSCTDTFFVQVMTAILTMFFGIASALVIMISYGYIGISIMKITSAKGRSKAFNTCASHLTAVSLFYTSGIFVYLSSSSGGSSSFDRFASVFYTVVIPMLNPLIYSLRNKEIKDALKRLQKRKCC
The assay is described as above. The settings on record: 10 μM musk ketone, puromycin 1 μg/ml, pool of 7 OR transfections. Type of assay: cell-based. As for the experimental part: as §1, §2, §3

For `C=CCc1ccc(O)c(OC)c1` [eugenol], the “clones selected with the ligand that contained OR10G7” value in assay [1] is reported as 8 out of 8.
Turning to `CC(=O)c1c(C)c([N+](=O)[O-])c(C(C)(C)C)c([N+](=O)[O-])c1C` [musk ketone], in assay [2], the “clones selected with the ligand that contained OR5AN1” value came out at 9 clones.
